Results published in the supplement of paper PMC10307832.

Columns and labels:
Assay in all cases: relative viability (nuclei count vs DMSO), 5 days (fraction); higher = more cells survive
Motesanib + Crizotinib = compound: CC1(C)CNc2cc(NC(=O)c3cccnc3NCc3ccncc3)ccc21 [Motesanib] + C[C@@H](Oc1cc(-c2cnn(C3CCNCC3)c2)cnc1N)c1c(Cl)ccc(F)c1Cl [Crizotinib] (partner 1 µM)
Summary of the method: (§1)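 One day after seeding in 1536-well plates, lung cancer cell lines were dosed by pin tool. Dosing was either single-drug or a fixed anchor-drug dose plus five library-drug doses (not always all listed) in √10 steps. After 5 days, nuclei were stained in one fix-and-stain step and counted on 4× images, and relative viability is the nuclei count of treated wells over that of vehicle wells, given as the median of duplicate plates.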

[1] = compound: C[C@@]1(C(=O)Nc2ccc(F)nc2)CCCN1c1nc(Nc2cc(C3CC3)n[nH]2)c2cccn2n1 + NC(=O)Nc1cc(-c2cccc(F)c2)sc1C(=O)N[C@H]1CCCNC1 [AZD7762] (partner 0.2 µM)
Summary of the method: as §1

Motesanib + Bortezomib = compound: CC1(C)CNc2cc(NC(=O)c3cccnc3NCc3ccncc3)ccc21 [Motesanib] + CC(C)C[C@H](NC(=O)[C@H](Cc1ccccc1)NC(=O)c1cnccn1)B(O)O [Bortezomib] (partner 0.002 µM)
Summary of the method: as §1

[2] = compound: C[C@@]1(C(=O)Nc2ccc(F)nc2)CCCN1c1nc(Nc2cc(C3CC3)n[nH]2)c2cccn2n1 + CC(C)C[C@H](NC(=O)[C@H](Cc1ccccc1)NC(=O)c1cnccn1)B(O)O [Bortezomib] (partner 0.002 µM)
Summary of the method: as §1

Cell Line | relative viability (Motesanib + Crizotinib; first compound 0.01 µM) | relative viability (Motesanib + Crizotinib; first compound 0.03162 µM) | relative viability (Motesanib + Crizotinib; first compound 0.1 µM) | relative viability (Motesanib + Crizotinib; first compound 0.3162 µM) | relative viability (Motesanib + Crizotinib; first compound 1 µM) | relative viability ([1]; first compound 0.04 µM) | relative viability ([1]; first compound 0.1265 µM) | relative viability ([1]; first compound 0.4 µM) | relative viability ([1]; first compound 1.265 µM) | relative viability (Motesanib + Bortezomib; first compound 0.01 µM) | relative viability (Motesanib + Bortezomib; first compound 0.03162 µM) | relative viability (Motesanib + Bortezomib; first compound 0.1 µM) | relative viability (Motesanib + Bortezomib; first compound 0.3162 µM) | relative viability (Motesanib + Bortezomib; first compound 1 µM) | relative viability ([2]; first compound 0.04 µM) | relative viability ([2]; first compound 0.1265 µM) | relative viability ([2]; first compound 0.4 µM) | relative viability ([2]; first compound 1.265 µM)
NCI-H1944 | 1.08 | 1.06 | 1.17 | 1.02 | 1.17 | 0.53 | 0.497 | 0.419 | 0.354 |  |  |  |  |  |  |  |  | 
LU99A | 0.518 | 0.477 | 0.493 | 0.549 | 0.574 | 0.294 | 0.243 | 0.223 | 0.143 | 1.12 | 1.37 | 0.921 | 1.22 | 1.19 | 0.984 | 0.837 | 0.623 | 0.445
SW 1573 | 0.686 | 0.887 | 0.913 | 0.746 | 0.973 |  |  |  |  | 1.17 | 1.02 | 1.09 | 1.03 | 0.928 | 0.894 | 0.611 | 0.7 | 0.716
NCI-H2347 | 0.783 | 0.691 | 0.715 | 0.745 | 0.631 | 0.68 | 0.765 | 0.731 | 0.672 | 1.08 | 0.574 | 1.08 | 0.799 | 1.05 | 1.05 | 0.654 | 0.916 | 0.765
NCI-H2009 | 0.965 | 1.09 | 0.928 | 1.01 | 0.943 |  |  |  |  | 1.07 | 1.05 | 1.05 | 1.2 | 1 | 1.13 | 1.17 | 0.931 | 0.875
HCC-15 | 0.778 | 0.782 | 0.799 | 0.835 | 0.838 | 1.07 | 1.18 | 1.25 | 1.13 | 0.97 | 0.968 | 0.886 | 1.16 | 1.07 | 0.943 | 0.742 | 0.881 | 1
HCC-44 | 0.883 | 0.8 | 0.801 | 0.765 | 0.901 | 1.02 | 0.954 | 0.989 | 0.979 | 0.905 | 0.877 | 0.994 | 0.974 | 0.885 | 0.862 | 0.81 | 0.648 | 0.685
COR-L23 | 0.512 | 0.639 | 0.703 | 0.643 | 0.547 |  |  |  |  | 1.01 | 0.974 | 1.04 | 1.11 | 0.914 | 1.06 | 1.01 | 0.936 | 0.583
HCC-78 | 0.378 | 0.352 | 0.37 | 0.326 | 0.384 | 0.593 | 0.419 | 0.418 | 0.4 | 0.44 | 0.375 | 0.667 | 0.549 | 0.385 | 0.445 | 0.855 | 0.293 | 0.317
NCI-H1299 | 0.938 | 0.978 | 0.951 | 0.949 | 0.936 |  |  |  |  | 1.02 | 1.02 | 1.04 | 1.01 | 1.05 | 1.05 | 0.975 | 1.03 | 1.03
NCI-H727 | 0.96 | 0.839 | 0.786 | 0.808 | 0.723 | 0.573 | 0.386 | 0.443 | 0.345 | 0.735 | 0.926 | 0.883 | 0.919 | 0.818 | 0.763 | 0.385 | 0.339 | 0.338
NCI-H1650 | 0.91 |  | 0.975 | 0.93 | 1.02 |  |  |  |  | 0.204 |  | 0.191 | 0.185 | 0.207 | 0.185 | 0.248 | 0.185 | 0.174
NCI-H1793 |  |  |  |  |  | 0.463 | 0.501 | 0.393 | 0.456 |  |  |  |  |  |  |  |  | 
COR-L 105 | 0.981 | 0.739 | 0.743 | 0.73 | 0.756 |  |  |  |  | 0.873 | 1.01 | 0.939 | 1.02 | 0.785 | 0.709 | 0.631 | 0.415 | 0.373
NCI-H2228 | 0.386 | 0.424 | 0.619 | 0.431 | 0.571 |  |  |  |  | 0.957 | 1.13 | 0.881 | 1.28 | 1.01 | 1.25 | 0.731 | 0.835 | 0.751
SW 900 |  |  |  |  |  | 0.541 | 0.688 | 0.5 | 0.561 |  |  |  |  |  |  |  |  | 
NCI-H661 |  | 0.945 | 1.09 | 0.978 | 1.1 |  |  |  |  | 0.795 | 0.767 | 0.765 | 0.849 | 1.04 | 0.924 | 1.08 | 0.653 | 0.819
NCI-H1563 | 0.867 | 0.855 | 0.906 | 0.804 | 0.914 |  |  |  |  | 0.934 | 0.812 | 0.956 | 0.882 | 0.904 | 0.853 | 0.826 | 0.73 | 0.747
A549 | 0.741 | 0.663 | 0.746 | 0.754 | 0.777 |  |  |  |  |  |  |  |  |  |  |  |  | 
NCI-H2342 |  |  |  |  |  | 0.475 | 0.375 | 0.404 | 0.323 |  |  |  |  |  |  |  |  | 
NCI-H2170 | 1.16 | 1.19 | 1.15 | 1.13 | 1.18 | 0.836 | 0.864 | 0.744 | 0.791 |  |  |  |  |  |  |  |  | 
NCI-H522 |  |  |  |  |  | 0.678 | 0.539 | 0.791 | 0.821 |  |  |  |  |  |  |  |  | 
NCI-H1395 |  |  |  |  |  | 0.395 | 0.416 | 0.396 | 0.364 |  |  |  |  |  |  |  |  | 
IA-LM | 0.829 | 0.745 | 1.21 | 0.729 | 0.803 |  |  |  |  | 0.879 | 0.704 | 0.816 | 0.819 | 0.783 | 0.844 | 0.933 | 0.807 | 0.48
NCI-H358 | 0.578 | 0.346 | 0.763 | 0.586 | 0.596 | 0.389 | 0.392 | 0.171 | 0.282 |  |  |  |  |  |  |  |  | 
EBC-1 | 0.178 | 0.19 | 0.205 | 0.193 | 0.181 |  |  |  |  | 0.637 | 0.56 | 0.557 | 0.537 | 0.559 | 0.527 | 0.509 | 0.52 | 0.302
